The record followed here is PMC6093661, “Vitamin E hydroquinone is an endogenous regulator of ferroptosis via redox control of 15-lipoxygenase” (PLoS ONE, 2018).

Read-outs that look alike come from different tables or passages of the source. A value given as a limit tells only on which side of the number the result lay.

Experiment [1] deals with Q7 cells. Nature of the experiment: RSL3-induced loss of Q7 cell viability. In kind it is cell-based, mouse. As to the method: Ferroptotic cell death was induced in Q7 cells using RSL3, a GPX4 inhibitor previously described. All four stereoisomers of RSL3 were synthesized and purified using published methods. […] To assess compound rescue activity and potency from ferroptotic cell death, Q7 cells were seeded in clear bottom, black wall tissue culture-treated polystyrene plates (Corning) using either an electronic multichannel pipette or a Multidrop™ Combi Reagent Dispenser (ThermoFisher Scientific). Cells were incubated for 5 hours at 33°C in an atmosphere with 95% humidity and 5% CO2 to allow attachment of the cells to the culture plate. Test compounds were administered to the desired final concentrations using a D300e Digital Dispenser (Tecan), followed within 15 minutes by RSL3 (2 μM final concentration). DMSO diluent was back-filled to a final concentration of 0.3% (v/v). Cell plates were incubated at 33°C (5% CO2, 95% humidity) for 18 hours. After a 15-minute equilibration to room temperature, cell number/viability was assessed using the CellTiter-Glo® 2.0 Cell Titer Glo 2.0 reagent (a luminescence-based assay to quantitate ATP; Promega) which was added using the Multidrop™ Combi Reagent Dispenser (Thermo Fisher Scientific). After 15 minutes of incubation at room temperature, the luminescence (100 ms integration time) per well was determined using the BioTek Synergy plate reader. Data was imported into and analyzed using Dotmatics Studies software suite. EC50 values for each compound were estimated using standard four-parameter curve fitting algorithms. pEC50 is defined as negative-log10 (EC50) in M units.

In experiment [2] the test system is Mouse striatal Q7 cells (STHdhQ7/Q7). Nature of the experiment: RSL3 ferroptosis cell rescue (cellular survival assay, CellTiter-Glo). As to conditions: for EC50: Mus musculus, 18 h, read-out: RSL3 Ferroptosis Cell Assay Average EC50, Q7 cells, RSL3 2 μM, 18 h co-treatment, CellTiter-Glo 2.0.
Experiment [3] addresses T1, Rabbit 15-lipoxygenase (rLOX15) (Oryctolagus cuniculus, UniProt P12530).
T1 construct: purchased Enzo Life Sciences, Inc. BML-PL015
T1 sequence (P12530 1-663): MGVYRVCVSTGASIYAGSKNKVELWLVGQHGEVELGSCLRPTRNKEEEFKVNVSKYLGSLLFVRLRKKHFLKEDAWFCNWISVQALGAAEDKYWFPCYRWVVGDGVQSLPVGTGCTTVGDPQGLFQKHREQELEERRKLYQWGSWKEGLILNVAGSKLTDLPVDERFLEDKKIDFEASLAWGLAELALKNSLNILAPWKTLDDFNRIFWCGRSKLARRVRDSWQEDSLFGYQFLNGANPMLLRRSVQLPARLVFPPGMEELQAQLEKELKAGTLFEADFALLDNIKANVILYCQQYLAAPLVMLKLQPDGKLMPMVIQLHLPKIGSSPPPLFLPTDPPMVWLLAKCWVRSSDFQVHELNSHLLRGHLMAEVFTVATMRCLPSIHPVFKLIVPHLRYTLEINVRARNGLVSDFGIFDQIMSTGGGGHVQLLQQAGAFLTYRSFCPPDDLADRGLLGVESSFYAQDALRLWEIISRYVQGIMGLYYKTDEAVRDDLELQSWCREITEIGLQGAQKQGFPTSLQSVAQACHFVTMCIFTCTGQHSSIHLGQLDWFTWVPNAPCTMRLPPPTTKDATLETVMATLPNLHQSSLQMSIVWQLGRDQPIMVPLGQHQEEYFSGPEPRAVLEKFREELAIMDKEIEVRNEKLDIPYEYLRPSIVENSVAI
Put plainly: Lipoxygenase enzyme inhibition assay. Format: biochemical. The following applies: for activity at 100 µM: read-out: 15-Lipoxygenase Enzyme Assay % activity at 100 μM; for IC50: 50 μM arachidonic acid substrate. Here is the method:
Rabbit 15-lipoxygenase (rLOX15, part number BML-PL015, lot number 3-P9009a) was obtained from Enzo Life Sciences, Inc. Sodium cholate (part number C6445, lot number 094K0209) was obtained from Sigma-Aldrich.
Stock solutions of test compounds were prepared in DMSO and then diluted to final assay concentrations in cholate mix such that final cholate and DMSO concentrations were maintained at 0.2%.

In the case of `COC(=O)c1ccc([C@H]2c3[nH]c4ccccc4c3C[C@H](C(=O)OC)N2C(=O)CCl)cc1` [(1S,3R)-RSL3], the “reduction of cell number/viability” value in experiment [1] (RSL3 2 μM, 18 h, typical) is given as over 80%. For the same compound, the “onset of cell death after RSL3 addition” value in experiment [1] (RSL3 ≥1 μM) was ~ 5 h. Also, the “loss of cell viability” value in experiment [1] (RSL3 ≥1 μM, 18 h after treatment) is reported as 80–95%. The IC50 in experiment [1] (most potent single stereoisomer of RSL3, read-out: IC50 for inhibition of Q7 cell viability) is about 200 nM.

Take `Cc1c(C)c2c(c(C)c1O)CC[C@@](C)(CCC(=O)O)O2` [α-CEHC]: the EC50 in experiment [2] is 8510 nM. Further, in experiment [3] (rabbit 15-LO, compound 100 μM), the activity at 100 µM came to 24%.

As for `CC(C)=CCC/C(C)=C/CC/C(C)=C/CC[C@]1(C)CCc2c(C)c(O)c(C)c(C)c2O1` [αT3, α-tocotrienol], the EC50 in experiment [2] was found to be 167 nM. Further, the “fold more potent in inhibiting ferroptosis, tocotrienol vs corresponding tocopherol” value in experiment [2] (Q7 cells, RSL3, EC50 ratio) is given as ~ 30 fold. The compound also gave an IC50 in experiment [3] (rabbit 15-LO) of over 100000 nM. Also, the activity at 100 µM in experiment [3] (rabbit 15-LO, compound 100 μM) amounted to 64%.

Turning to `CC(C)=CCC/C(C)=C/CC/C(C)=C/CC[C@@](C)(O)CCc1c(C)c(O)c(C)c(C)c1O` [αT3HQ, α-tocotrienol hydroquinone], the concentration for a half-maximal effect (EC50) in experiment [2] amounted to 43 nM. In experiment [3] (rabbit 15-LO), this compound gave an IC50 of 1990 nM. In experiment [3] (rabbit 15-LO, compound 100 μM), the activity at 100 µM is 9%.

In the case of `CC(C)=CCC/C(C)=C/CC/C(C)=C/CC[C@@](C)(O)CCC1=C(C)C(=O)C(C)=C(C)C1=O` [αT3Q, α-tocotrienol quinone], in experiment [2], the EC50 worked out at 43 nM.

As to `CC(C)=CCC/C(C)=C/CC/C(C)=C/CC[C@]1(C)CCc2cc(O)c(C)c(C)c2O1` [γT3, γ-tocotrienol], the activity at 100 µM in experiment [3] came out at 33%.

As for `CC(C)=CCC/C(C)=C/CC/C(C)=C/CC[C@@](C)(O)CCc1cc(O)c(C)c(C)c1O` [γT3HQ, γ-tocotrienol hydroquinone], in experiment [2], the EC50 came out at 36 nM. For the same compound, in experiment [3] (rabbit 15-LO), the IC50 worked out at 1120 nM. Besides, the activity at 100 µM in experiment [3] (rabbit 15-LO, compound 100 μM) came out at 7%.

Regarding `CC(C)=CCC/C(C)=C/CC/C(C)=C/CC[C@@](C)(O)CCC1=CC(=O)C(C)=C(C)C1=O` [γT3Q, γ-tocotrienol quinone], the EC50 in experiment [2] turned out to be 52 nM.

Take `Cc1c(O)cc2c(c1C)O[C@](C)(CCC[C@H](C)CCC[C@H](C)CCCC(C)C)CC2` [γT, γ-tocopherol]: the EC50 in experiment [2] was found to be 3220 nM. For the same compound, the activity at 100 µM in experiment [3] (rabbit 15-LO, compound 100 μM) turned out to be 34%.

In the case of `Cc1c(O)cc(CC[C@](C)(O)CCC[C@H](C)CCC[C@H](C)CCCC(C)C)c(O)c1C` [γTHQ, γ-tocopherol hydroquinone], in experiment [2], the EC50 worked out at 64 nM. Also, the IC50 in experiment [3] (rabbit 15-LO) worked out at 2190 nM. The activity at 100 µM in experiment [3] (rabbit 15-LO, compound 100 μM) is 18%.

On to `CC1=C(C)C(=O)C(CC[C@](C)(O)CCC[C@H](C)CCC[C@H](C)CCCC(C)C)=CC1=O` [γTQ, γ-tocopherol quinone], for which, in experiment [2], the EC50 worked out at 101 nM.

Turning to `CC(C)=CCC/C(C)=C/CC/C(C)=C/CC[C@]1(C)CCc2cc(O)cc(C)c2O1` [δT3, δ-tocotrienol], in experiment [2], the EC50 came to 517 nM. Moreover, in experiment [3] (rabbit 15-LO, compound 100 μM), the activity at 100 µM came out at 46%.

For the compound `CC(C)=CCC/C(C)=C/CC/C(C)=C/CC[C@@](C)(O)CCc1cc(O)cc(C)c1O` [δT3HQ, δ-tocotrienol hydroquinone], in experiment [2], the EC50 stood at 146 nM. Moreover, inhibition in experiment [3] (rabbit 15-LO) was half-maximal at 1370 nM (IC50). For the same compound, the activity at 100 µM in experiment [3] (rabbit 15-LO, compound 100 μM) stood at 14%.

Turning to `CC(C)=CCC/C(C)=C/CC/C(C)=C/CC[C@@](C)(O)CCC1=CC(=O)C=C(C)C1=O` [δT3Q, δ-tocotrienol quinone], in experiment [2], the EC50 was found to be 163 nM.

For the compound `Cc1cc(O)cc2c1O[C@](C)(CCC[C@H](C)CCC[C@H](C)CCCC(C)C)CC2` [δT, δ-tocopherol], the EC50 in experiment [2] amounted to 5670 nM. Besides, the activity at 100 µM in experiment [3] (rabbit 15-LO, compound 100 μM) amounted to 45%.

As to `Cc1cc(O)cc(CC[C@](C)(O)CCC[C@H](C)CCC[C@H](C)CCCC(C)C)c1O` [δTHQ, δ-tocopherol hydroquinone], the 50% effective concentration (EC50) in experiment [2] is 84 nM. Also, the IC50 in experiment [3] (rabbit 15-LO) was determined as 2090 nM. The activity at 100 µM in experiment [3] (rabbit 15-LO, compound 100 μM) turned out to be 17%.

For the compound `CC1=CC(=O)C=C(CC[C@](C)(O)CCC[C@H](C)CCC[C@H](C)CCCC(C)C)C1=O` [δTQ], in experiment [2], the EC50 turned out to be 236 nM.
